Experimental data taken from US20180200331A1, “BST-2 AS A THERAPEUTIC TARGET AND DIAGNOSTIC MARKER FOR BREAST CANCER GROWTH AND METASTASIS” (University of Iowa Research Foundation, priority 2015, published 2018).
Where two headings read alike, the source gives them in different places. No end group written: not given here.

Key:
Claudin-6 (CLDN6) [1] = experiment: 5-azacytidine treatment, CLDN6 RT-qPCR; type: cell-based, human; details: HMLE, MCF-7, SK-BR-3, MDA-MB-231 cells, 1 uM for 5 days
Method: (§1) Human normal and breast cancer cell lines were plated at 150,000 cells/well in a 6-well plate and treated with DMSO (vehicle) or 1 μM of 5-azacytidine (5-azaC, Sigma Aldrich) for 5 days. Cells were lifted using Versene (a gentle cell dissociator, Life Technologies), washed with PBS, pelleted and stored at −20° C. until required for analysis. RNA was isolated from frozen cells using the RNeasy mini kit (Qiagen) according to manufacturer's instructions. Equivalent amounts of RNA were treated with DNase (Qiagen). A portion of RNA was subjected to cDNA synthesis (ABI) as previously described. RNA concentration and purity were assessed at 260/280 nm using the spectrophotometer. Using synthesized cDNA, sequence-specific primers were used to amplify BST-2 [4] and GAPDH [13,48]. Claudin-6 was amplified with (F: […], R: […]) primer pair. RT-qPCR was carried out with an ABI 7500 FAST thermal cycler in triplicates as previously described.

BST-2 [2] = experiment: 5-azacytidine treatment, BST-2 RT-qPCR and flow cytometry; type: cell-based, human; details: 1 uM for 5 days
Method: Cell lines of interest were plated at 150,000 cells/well in a 6-well plate and treated with DMSO (vehicle) or 1 μM of 5-azacytidine (5-azaC, Sigma Aldrich) for 5 days. Cells were harvested using 0.25% trypsin-EDTA (Mediatech, Corning, N.Y., USA). Post-incubation, 8 ml of 10% FBS-containing RPMI media (Life Technologies) was added and cells were centrifuged. Media was aspirated and individual cells were resuspended in 2% FBS-containing PBS (Life Technologies). Cell suspension was passed through a […] cell strainer (Falcon). Cells were incubated at 4° C. for 1 hour with APC-conjugated anti-BST-2 primary antibodies or appropriate IgG (Ebioscience) and washed with 1×PBS. After washing, cells were incubated with the fluorescent intercalator-7-aminoactinomycin D (7-AAD) (BioLegend) at 4° C. for 30 minutes to exclude dead cells. Stained cells were quantified using a FACS Calibur flow cytometer (BD). 10,000 events were collected per sample and FACS data were analyzed and plotted using Flowjo software (TreeStar).
as §1

BST-2 [3] = details: cited from earlier work
Claudin-6 (CLDN6) [4] = details: all cell types, GEO datasets; cited from earlier work
MDA-MB-231 cells = experiment: Cancer cell to cancer cell adhesion assay on MDA-MB-231 shControl monolayers; type: cell-based, human; details: monolayers blocked with 200 ng/well for 4 hours; adhesion 4 hours
Method: FIG. 46. […] Moreover, MDA-mb-231 SHcONTROL CELLS WERE ADDED TO mda-mb-231 ShBST-2 monolayers (on shBST-2). (Each data point corresponds to six different wells analyzed. Error bars correspond to SEM. Significance was taken at P<0.0005*** or P<0.0001****.
MDA-MB-231 cells expressing shBST-2 or shControl were plated to confluency in a 96-well plate. MDA-MB-231 shControl cells were blocked with water (Vehicle), 200 ng/well of recombinant BST-2 (Sino Biological Inc.), 200 ng/well of B49 peptide or 200 ng of B49nc peptide for 4 hours. Wells were washed twice with PBS and then PKH67 labeled MDA-MB-231 shControl cells were added to wells at 25,000 cells/well. Cells were allowed to adhere for 4 hours at 37° C. Non-adhered cells were washed off with PBS and plates were read at 485 nm/535 nm (excitation/emission) wavelengths using a Tecan Infinite M200 Pro plate reader (Tecan). Values are represented as relative fluorescence intensity (RFI).

Half-life of B49nc = experiment: Half-life of B49nc
Description: We generated a truncated form of B49 called “B49nc” having the sequence […] (SEQ ID NO:14).

BST-2 [5] = experiment: shRNA knockdown of BST-2 in E0771 and 4T1 cells; type: cell-based, mouse; details: E0771 and 4T1 cells stably transduced
Description: E0771 and 4T1 cells were stably transduced with a construct expressing LV-CMV-firefly luciferase or an empty vector construct using lipofectamine following the manufacturer's instructions (Life Technologies, Carlsbad, Calif., USA). Stable transfectants were then transduced with lentiviral particles carrying BST-2-targeting sh137: CCGGC […] (SEQ ID NO:3); sh413: […] TTCTCAAGCTTTTTG (SEQ ID NO:4); or a non-targeting shControl: […] (SEQ ID NO:5) using a previously described protocol. Stable cells were generated by selection with the appropriate drug. The short hairpin RNA (shRNA) constructs were purchased from Sigma-Aldrich (St Louis, Mo., USA) (SHCLND-NM_198095) and lentiviral particles were generated at the Gene Transfer Vector Core at the University of Iowa.
Cell monolayers were washed with PBS and treated with Versene (Life Technologies). […] Stained cells were quantified using a FACSCalibur flow cytometer (BD Biosciences, San Jose, Calif., USA). […] Fluorescence-activated cell sorting (FACS) data were analyzed by Flowjo software (TreeStar, Ashland, Oreg., USA). […]
Western blots were performed as previously described. […] Band detection and quantification were carried out with the Odyssey Infrared Imaging System (LI-COR Biosciences, Lincoln, Nebr., USA).

E0771 cells [6] = experiment: Boyden chamber assay; type: cell-based, mouse; details: 20 hours
Method: The apical chamber of 24-well cell culture inserts (Merck Millipore, Billerica, Mass., USA) were seeded with previously starved sh137, sh413 or shControl transduced E0771 cells (150,000) in serum-free medium. Culture medium containing 30% FBS was added to the basal chamber of the unit and cells were allowed to migrate through the membranous barrier for 20 hours at 37° C. Non-migrated cells were washed off, migrated cells were fixed with 4% PFA for 5 minutes, washed twice with 1×PBS, permeabilized with 100% methanol for 25 minutes, labeled with Giemsa stain (for 15 minutes at room temperature) and imaged using a Nikon Eclipse Ti microscope adjusted with an X-cite series 120 LED fluorescence microscope light source and a Nikon digital sight camera. Images were processed using Image J software. Cells from five different fields were counted and averaged.

mammary cancer cells [7] = experiment: Scratch assay; type: cell-based, mouse; details: 6 h and 24 h
Method: Confluent monolayers of cancer cells plated in 12-well plates were scratched using a pipette tip. Fresh medium was added to the wells. Cells were allowed to migrate for 0, 6 or 24 hours before fixation (4% paraformaldehyde (PFA) for 45 minutes). Fixed cells were washed (1×PBS) and imaged with a Nikon Eclipse Ti microscope adjusted with a Nikon digital sight camera (Nikon, Tokyo, Japan). Images were processed and migrated cells counted using Image J software.

E0771 cells [8] = experiment: MTT assay, E0771; type: cell-based, mouse
Method: A total of 5,000 cells stably expressing sh137, sh413, or shControl were plated in 96-well plates. Cells were then incubated with 5 mg/ml MTT reagent for 3.5 hours followed by addition of MTT solvent (0.1% NP-40 and 4 mM HCl in isopropanol) and rocking for 15 minutes. Absorbance at 590 nm was read using a Tecan Infinite M200 Pro plate reader.

mammary cancer cells [9] = experiment: Transformation assay (soft agar colony formation); type: cell-based, mouse; details: compared to shControl
Method: Agar was mixed in Roswell Park Memorial Institute medium (RPMI) with 20% FBS. A total of 500 μl of 0.5% agar was added to 24-well plate and allowed to solidify. Cells were plated at 1,250 cells/well in 500 μl of 0.35% agarose. Some 250 μl of the appropriate growth medium was added on top of the agarose layer. Growth medium was replaced twice a week. Colonies were stained with crystal violet and imaged. Colonies from five different fields were counted and averaged.

E0771 or 4T1 cells = experiment: Cell invasion assay (Matrigel); type: cell-based, mouse; details: 24 h
Method: The apical chamber of 24-well cell culture inserts (Merck Millipore) were coated with 3 mg/ml of Matrigel (100 μl) (Sigma-Aldrich) and allowed to solidify for 5 hours. A total of 100,000 sh413- or shControl-transduced E0771 or 4T1 cells in serum-free medium were plated on top of the Matrigel layer. Culture medium containing 10% FBS and 5 μg/ml fibronectin (adhesive substrate) (Sigma-Aldrich) was added to the basal chamber of the unit (600 μl) and cells were allowed to invade through the membranous barrier for 24 hours at 37° C. Noninvasive cells were washed off; invasive cells were fixed with 4% PFA, permeabilized with 100% methanol, labeled with Giemsa stain and imaged as described in the previous paragraph. Images were processed using Image J software. Cells from five different fields were counted and averaged.

E0771 and 4T1 cells = experiment: BrdU assay; type: cell-based, mouse
Method: A total of 5,000 cells were plated in 96-well plates for 24 hours. Bromodeoxyuridine or 5-bromo-2′-deoxyuridine (BrdU) (Calbiochem, Billerica, Mass., USA) assay was carried out according to the manufacturer's instructions. Absorbance at 450 nm was read using a Tecan Infinite plate reader. In parallel, 150,000 cells were plated in 24-well plates for 24 hours. Cells were incubated with BrdU label (1:2000) for 20 hours, treated with a fixative/denaturing solution (30 minutes) and incubated with an anti-BrdU antibody (1:1000) and rat anti-mouse BST-2 antibody (1:200, eBioscience) for 1 hour at room temperature. Cells were washed and incubated with Alexa Fluor 594 anti-rat (Invitrogen, Waltham, Mass., USA) and Alexa Fluor 488 anti-mouse (Invitrogen) secondary antibodies for 30 minutes at room temperature. Cells were stained with 4′,6-diamidino-2-phenylindole (DAPI)-containing Vectashield (Vector Laboratories, Burlingame, Calif., USA) and imaged using a Zeiss 710 confocal microscope (Carl Zeiss, Oberkochen, Germany). Images were processed using Image J software. BrdU label, fixative/denaturing solution, and anti-BrdU antibody were from BrdU (Calbiochem) assay.

**Q.** Which results are given for `Nc1ncn([C@@H]2O[C@H](CO)[C@@H](O)[C@H]2O)c(=O)n1` [5-AzaC, 5-azacytidine]?
**A.** CLDN6 mRNA level (Claudin-6 (CLDN6) [1]): induced in all cell types; BST-2 levels (RNA and protein) (BST-2 [2]; HMLE cells): significant increase; BST-2 levels (RNA and protein) (BST-2 [2]; MCF-7 cells): significant increase; BST-2 mRNA and protein levels (BST-2 [2]; MDA-MB-231 cells): unchanged; BST-2 mRNA and protein levels (BST-2 [2]; SK-BR-3 cells): unchanged

**Q.** With `Nc1ncn([C@H]2C[C@H](O)[C@@H](CO)O2)c(=O)n1` [DAC, 2′-deoxy-5-azacytidine] as the molecule, how does the “BST-2 mRNA expression” value (BST-2 [3]; HB2 cells, GEO GSE28976) read?
**A.** increased BST-2 mRNA expression

**Q.** What about the “BST-2 mRNA expression” value (BST-2 [3]; MCF-7 cells, GEO GSE36683) of the same molecule?
**A.** increased BST-2 mRNA expression

**Q.** And the BST-2 levels (BST-2 [3]; MDA-MB-231 cells, GEO GSE28976)?
**A.** did not show any increase

**Q.** What about the BST-2 levels (BST-2 [3]; SK-BR-3 cells, GEO GSE28976) of the same molecule?
**A.** did not show any increase

**Q.** And the “CLDN6 mRNA levels” value (Claudin-6 (CLDN6) [4])?
**A.** induced in all cell types

**Q.** Which results are given for “TIKANSEACRDGLRAVMECRNVTHLLQQELTEAQKGFQDVEAQAATCNHTVMA (cysteines drawn unpaired) [B49nc]”?
**A.** cancer cell adhesion (relative fluorescence intensity) (MDA-MB-231 cells): inhibits cancer cell adhesion; half-life (Half-life of B49nc): ~20 h

**Q.** With “sh137: BST-2-targeting shRNA (SEQ ID NO:3), delivered by lentiviral particles (CCGGCGCGATCTTGGTGGTCCTGTTCTCGAGAACAGGACCACCAAGATCGCGTTTTTG)” as the molecule, how does the BST-2 expression (BST-2 [5]) read?
**A.** reduced BST-2 expression

**Q.** What about the “rate of cell migration (Boyden chamber)” value (E0771 cells [6]) of the same molecule?
**A.** significantly reduced rate of cell migration

**Q.** What about the “migration into scratch wound” value (mammary cancer cells [7]) of the same molecule?
**A.** showed some migration

**Q.** What about the “cell viability (MTT)” value (E0771 cells [8]) of the same molecule?
**A.** equally viable

**Q.** What about the “colony numbers in soft agar” value (mammary cancer cells [9]) of the same molecule?
**A.** reduced colony numbers

**Q.** What about the “invasion through Matrigel” value (E0771 or 4T1 cells) of the same molecule?
**A.** reduced the ability of the cells to invade the basement membrane

**Q.** What about the “cell proliferation (BrdU incorporation)” value (E0771 and 4T1 cells) of the same molecule?
**A.** no effect on cell proliferation
